According to PubChem BioAssay AID248 (DTP/NCI, 2004):
Values joined by “and” are separate entries in the source; they are usually repeats but may differ in a detail not shown here. Identical values can stand only once. Toxic doses and inconclusive results are not listed. No stated cut-off is given here; in the data, active means T/C of 150% or more; inactive means T/C below 125%.

Tested on: L1210 leukemia ip in BDF1 mice, survival T/C
Test: NCI In Vivo Anticancer Drug Screen. Data for tumor model L1210 Leukemia (intraperitoneal) in B6D2F1 (BDF1) mice
Conditions: endpoint: mean survival time, higher = longer survival
Procedure, shortened: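 Survival endpoint. Drug-treated group vs vehicle group, expressed as T divided by C. Tumor passaged by transplantation.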

[1] = dose: 100.0 mg/kg/injection, schedule: Q04DX002 (ip), vehicle: saline with Tween-80
[2] = dose: 100.0 mg/kg/injection, schedule: Q04DX003 (ip), vehicle: Klucel (hydroxypropylcellulose) (HPC)
[3] = dose: 200.0 mg/kg/injection, schedule: Q04DX002 (ip), vehicle: saline with Tween-80
[4] = dose: 200.0 mg/kg/injection, schedule: Q04DX003 (ip), vehicle: Klucel (hydroxypropylcellulose) (HPC)
[5] = dose: 400.0 mg/kg/injection, schedule: Q04DX002 (ip), vehicle: saline with Tween-80
[6] = dose: 400.0 mg/kg/injection, schedule: Q04DX003 (ip), vehicle: Klucel (hydroxypropylcellulose) (HPC)
[7] = dose: 100.0 mg/kg/injection, schedule: Q04DX002 (ip), vehicle: Klucel (hydroxypropylcellulose) (HPC)
[8] = dose: 200.0 mg/kg/injection, schedule: Q04DX002 (ip), vehicle: Klucel (hydroxypropylcellulose) (HPC)
[9] = dose: 100.0 mg/kg/injection, schedule: Q01DX009 (ip), vehicle: Klucel (hydroxypropylcellulose) (HPC)
[10] = dose: 200.0 mg/kg/injection, schedule: Q01DX009 (ip), vehicle: Klucel (hydroxypropylcellulose) (HPC)
[11] = dose: 400.0 mg/kg/injection, schedule: Q01DX009 (ip), vehicle: Klucel (hydroxypropylcellulose) (HPC)
[12] = dose: 100.0 mg/kg/injection, schedule: Q01DX001 (ip), vehicle: saline
[13] = dose: 200.0 mg/kg/injection, schedule: Q01DX001 (ip), vehicle: saline
[14] = dose: 400.0 mg/kg/injection, schedule: Q01DX001 (ip), vehicle: saline
[15] = dose: 100.0 mg/kg/injection, schedule: Q01DX001 (ip), vehicle: carboxymethylcellulose (CMC)

Measured: T/C

N=C(N)c1cccc(NC(=O)c2ccc(C(=O)Nc3cccc(C(=N)N)c3)c([N+](=O)[O-])c2)c1
inactive: dose: 1.0 mg/kg/injection, schedule: Q01DX015 (ip), vehicle: water 96 % of control | dose: 2.0 mg/kg/injection, schedule: Q01DX015 (ip), vehicle: water 96 % of control | dose: 4.0 mg/kg/injection, schedule: Q01DX015 (ip), vehicle: water 102 % of control | dose: 8.0 mg/kg/injection, schedule: Q01DX015 (ip), vehicle: water 102 % of control and 109 % of control | dose: 16.0 mg/kg/injection, schedule: Q01DX015 (ip), vehicle: water 115 % of control

CCC1=C(CC2NCCc3ccccc32)CC2c3cc(OC)c(OC)cc3CCN2C1 (configuration not stated)
inactive: dose: 4.0 mg/kg/injection, schedule: Q04DX003 (ip), vehicle: water 103 % of control | dose: 8.0 mg/kg/injection, schedule: Q04DX003 (ip), vehicle: water 103 % of control | dose: 16.0 mg/kg/injection, schedule: Q04DX003 (ip), vehicle: water 102 % of control | dose: 32.0 mg/kg/injection, schedule: Q04DX003 (ip), vehicle: water 102 % of control | dose: 64.0 mg/kg/injection, schedule: Q04DX003 (ip), vehicle: water 102 % of control | dose: 75.0 mg/kg/injection, schedule: Q01DX001 (ip), vehicle: saline 95 % of control and 103 % of control | dose: 150.0 mg/kg/injection, schedule: Q01DX001 (ip), vehicle: saline 100 % of control and 103 % of control | dose: 300.0 mg/kg/injection, schedule: Q01DX001 (ip), vehicle: saline 100 % of control

c1ccc(P(CCP(CCP(c2ccccc2)c2ccccc2)c2ccccc2)CCP(c2ccccc2)c2ccccc2)cc1 (configuration not stated)
inactive: [1] 90 % of control | dose: 100.0 mg/kg/injection, schedule: Q04DX002 (ip), vehicle: saline 101 % of control | [2] 95 % of control and 101 % of control | [3] 96 % of control | dose: 200.0 mg/kg/injection, schedule: Q04DX002 (ip), vehicle: saline 96 % of control | [4] 96 % of control and 102 % of control | [5] 93 % of control | dose: 400.0 mg/kg/injection, schedule: Q04DX002 (ip), vehicle: saline 101 % of control | [6] 93 % of control

CCCCCCCCCCCCSC(=O)Nc1ccc(C(=O)OCC)cc1
inactive: [7] 95 % of control | [8] 116 % of control | dose: 400.0 mg/kg/injection, schedule: Q04DX002 (ip), vehicle: Klucel (hydroxypropylcellulose) (HPC) 92 % of control

CNc1nc(SC)ncc1C
inactive: dose: 25.0 mg/kg/injection, schedule: Q01DX Z (ip), vehicle: methylcellulose (MC) 92 % of control | dose: 50.0 mg/kg/injection, schedule: Q01DX Z (ip), vehicle: methylcellulose (MC) 89 % of control

CCCC(=O)N1CCCCC1C (configuration not stated)
inactive: [7] 112 % of control | [8] 89 % of control

CCCOC(=O)COc1ccc(Cl)cc1
inactive: [9] 97 % of control | [10] 95 % of control | [11] 104 % of control

O=[N+]([O-])c1ccc(Cc2ccc([N+](=O)[O-])cc2)cc1
inactive: dose: 100.0 mg/kg/injection, schedule: Q04DX003 (ip), vehicle: saline with Tween-80 102 % of control | dose: 200.0 mg/kg/injection, schedule: Q04DX003 (ip), vehicle: saline with Tween-80 109 % of control | dose: 400.0 mg/kg/injection, schedule: Q04DX003 (ip), vehicle: saline with Tween-80 98 % of control

COc1ccc(/C=C(/C(=O)c2ccc(OCCN3CCCC3)cc2)c2ccccc2)cc1OC
inactive: dose: 100.0 mg/kg/injection, schedule: Q04DX003 (sc), vehicle: olive oil, sesame oil, peanut oil 101 % of control | dose: 200.0 mg/kg/injection, schedule: Q04DX003 (sc), vehicle: olive oil, sesame oil, peanut oil 98 % of control | dose: 400.0 mg/kg/injection, schedule: Q04DX003 (sc), vehicle: olive oil, sesame oil, peanut oil 97 % of control

CC1SC(=S)N(c2ccccc2)C1=O (configuration not stated)
inactive: dose: 100.0 mg/kg/injection, schedule: Q01DX009 (ip), vehicle: saline with Tween-80 92 % of control | dose: 200.0 mg/kg/injection, schedule: Q01DX009 (ip), vehicle: saline with Tween-80 106 % of control

CCOC(=O)c1ccc(Nc2sc(C(=O)c3ccccc3)c(N)c2C#N)cc1
inactive: [1] 120 % of control | [3] 92 % of control | [5] 89 % of control

O=C(Sc1cccc2ccccc12)c1ccc([N+](=O)[O-])cc1
inactive: [2] 95 % of control | [4] 97 % of control | [6] 95 % of control

Nc1ccc(/C=C\C2(CCl)OCCO2)cc1
inactive: dose: 50.0 mg/kg/injection, schedule: Q01DX001 (ip), vehicle: saline 100 % of control | [12] 97 % of control | [13] 103 % of control | [14] 94 % of control

Clc1ccc(CSSCc2ccc(Cl)cc2Cl)c(Cl)c1
inactive: dose: 100.0 mg/kg/injection, schedule: Q04DX002 (ip), vehicle: gum acacia 95 % of control | dose: 200.0 mg/kg/injection, schedule: Q04DX002 (ip), vehicle: gum acacia 116 % of control | dose: 400.0 mg/kg/injection, schedule: Q04DX002 (ip), vehicle: gum acacia 100 % of control

CC(=O)ONCCc1ccc(S(=O)(=O)F)cc1
inactive: [2] 105 % of control | [4] 96 % of control | [6] 98 % of control

[NH-]C(CC(N)=O)C(=O)O.[NH-]C(CC(N)=O)C(=O)O.[Zn+2] (configuration not stated)
inactive: dose: 25.0 mg/kg/injection, schedule: Q04DX002 (ip), vehicle: saline 92 % of control | dose: 50.0 mg/kg/injection, schedule: Q04DX002 (ip), vehicle: saline 116 % of control

Oc1c(-c2ccccn2)cccc1C(F)(F)F
inactive: dose: 12.5 mg/kg/injection, schedule: Q04DX003 (ip), vehicle: Klucel (hydroxypropylcellulose) (HPC) 98 % of control | dose: 25.0 mg/kg/injection, schedule: Q04DX003 (ip), vehicle: Klucel (hydroxypropylcellulose) (HPC) 102 % of control | dose: 50.0 mg/kg/injection, schedule: Q04DX003 (ip), vehicle: Klucel (hydroxypropylcellulose) (HPC) 100 % of control

CCCNC(=O)Nc1ccc(OC)cc1Cl
inactive: [9] 93 % of control | [10] 93 % of control | [11] 93 % of control

BrC#CC1=CCCCC1
inactive: dose: 100.0 mg/kg/injection, schedule: Q01DX009 (ip), vehicle: acetone 88 % of control | dose: 100.0 mg/kg/injection, schedule: Q04DX003 (ip), vehicle: saline 105 % of control | dose: 200.0 mg/kg/injection, schedule: Q01DX009 (ip), vehicle: acetone 86 % of control | dose: 200.0 mg/kg/injection, schedule: Q04DX003 (ip), vehicle: saline 103 % of control | dose: 400.0 mg/kg/injection, schedule: Q01DX009 (ip), vehicle: acetone 108 % of control | dose: 400.0 mg/kg/injection, schedule: Q04DX003 (ip), vehicle: saline 107 % of control

CC1(C)CC1(Br)c1ccccc1 (configuration not stated)
inactive: [12] 96 % of control | [13] 96 % of control | [14] 101 % of control

O=c1[nH]cc(S)c(=O)[nH]1
inactive: [15] 96 % of control | dose: 100.0 mg/kg/injection, schedule: Q01DX015 (ip), vehicle: carboxymethylcellulose (CMC) 102 % of control | dose: 200.0 mg/kg/injection, schedule: Q01DX001 (ip), vehicle: carboxymethylcellulose (CMC) 100 % of control

O=c1ncc2[nH]c(I)nc2[nH]1
inactive: [15] 96 % of control
